Measurements taken from patent publication US8765748B2, “Indazolyl, benzimidazolyl, benzotriazolyl substituted indolinone derivatives as kinase inhibitors useful in the treatment of cancer” (University Health Network, priority 2007, dated 2014).
Where a name gives a salt, the structure may show the parent alone.

Assays:
human PLK4 = molecular target: T1, human PLK4 (Homo sapiens, UniProt O00444); test: PLK4 Inhibition Assay (indirect ELISA); type: biochemical; conditions: 15 μM ATP, 4 nM GST-PLK4; read-out: PLK4 IC50 Ranges
T1 construct: amino terminal GST fusion of residues 1-391 of human PLK4; made in house; host or cells: E. coli
T1 sequence (O00444 1-391): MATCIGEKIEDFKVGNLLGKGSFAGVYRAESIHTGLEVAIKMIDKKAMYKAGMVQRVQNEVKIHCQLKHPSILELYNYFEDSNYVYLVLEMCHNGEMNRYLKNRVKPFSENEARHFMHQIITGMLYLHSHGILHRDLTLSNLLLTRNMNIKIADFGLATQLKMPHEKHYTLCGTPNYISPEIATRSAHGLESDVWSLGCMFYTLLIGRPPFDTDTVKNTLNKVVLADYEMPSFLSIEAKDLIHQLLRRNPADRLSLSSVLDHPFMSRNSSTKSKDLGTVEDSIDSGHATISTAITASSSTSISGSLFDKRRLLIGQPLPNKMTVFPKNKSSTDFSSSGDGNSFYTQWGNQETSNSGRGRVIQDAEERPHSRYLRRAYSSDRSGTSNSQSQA
Protocol: The protein was purified from clarified cell extracts after induction at 15° C. overnight using glutathione sepharose, gel permeation chromatography, and ion exchange (Resource Q). The resulting protein was dephosphorylated with lambda phosphatase (NEB cat #P0753), and resolved from the phosphatase using gluthione sepharose. The dephosphorylated GST-PLK4 was stored in aliquots at −80° C. until use. PLK4 activity was measured using an indirect ELISA detection system. […] Compounds were pre-incubated in the presence of enzyme for 15 minutes prior to addition of ATP and the activity remaining quantified using the above described activity assay. […] The IC50 value was determined using a non-linear 4 point logistic curve fit (XLfit4, IDBS) with the formula; (A+(B/(1+((x/C)^D)))), where A=background value, B=range, C=inflection point, D=curve fit parameter.

Aurora B = molecular target: T2, Aurora B (Homo sapiens, UniProt Q96GD4); test: Aurora B Inhibition Assay (Z-Lyte); type: biochemical; conditions: 128 μM ATP, 28 nM Aurora B; read-out: Aurora B IC50 Ranges
T2 construct: purchased Invitrogen PV3970
T2 sequence (Q96GD4 whole entry): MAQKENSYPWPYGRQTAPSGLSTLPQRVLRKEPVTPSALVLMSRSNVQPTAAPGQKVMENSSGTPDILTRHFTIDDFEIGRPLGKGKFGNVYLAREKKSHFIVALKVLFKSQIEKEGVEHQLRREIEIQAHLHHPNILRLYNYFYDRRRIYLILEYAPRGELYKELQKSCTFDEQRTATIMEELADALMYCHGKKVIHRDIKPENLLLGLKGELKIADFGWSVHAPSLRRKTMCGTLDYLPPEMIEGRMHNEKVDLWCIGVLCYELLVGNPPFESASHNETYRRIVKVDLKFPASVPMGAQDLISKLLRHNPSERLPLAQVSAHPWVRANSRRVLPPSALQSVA
Protocol: Aurora B inhibition was determined using the Z-Lyte assay kit from Invitrogen. The assay was performed using the recommended manufacturer's instructions with 128 μM ATP and 28 nM Aurora B (Invitrogen cat #PV3970). The % inhibition values were determined according to the manufacturer's directions and IC50 values were obtained using a non-linear 4 point logistic curve fit (XLfit4, IDBS)

CC(C)NC(=O)Nc1cccc2c1NC(=O)/C2=C/c1ccc2cn[nH]c2c1 [Example A48, (E)-1-(3-((1H-indazol-6-yl)methylene)-2-oxoindolin-7-yl)-3-isopropyl-urea]
IC50 (human PLK4): < 5 µM

Cc1ccc2c(c1)C(=Nc1ccc3[nH]ncc3c1)C(=O)N2 [Example A78, (E and Z)-3-(1H-indazol-5-ylimino)-5-methylindolin-2-one]
IC50 (human PLK4): < 5 µM

CN1CCN(C(=O)/C=C/c2n[nH]c3cc(C=C4C(=O)Nc5ccccc54)ccc23)CC1 (mixture of isomers) [Example A66, (E and Z)-3-((3-((E)-3-(4-methylpiperazin-1-yl)-3-oxoprop-1-enyl)-1H-indazol-6-yl)methylene)indolin-2-one]
IC50 (human PLK4): < 5 µM

O=C1Nc2ccccc2C1=Cc1ccc2[nH]nc(/C=C/c3ccncc3)c2c1 (mixture of isomers) [Example A131, (E and Z)-3-((3-((E)-2-(pyridin-4-yl)vinyl)-1H-indazol-5-yl)-methylene)indolin-2-one hydrochloride]
IC50 (human PLK4): < 5 µM

Cc1ccc2c(c1)C(=Nc1ccc3cn[nH]c3c1)C(=O)N2 [Example A74, (E and Z)-3-(1H-indazol-6-ylimino)-5-methylindolin-2-one]
IC50 (human PLK4): < 5 µM

COc1ccc2c(c1)/C(=C\c1ccc3c(/C=C/c4cccc[n+]4[O-])n[nH]c3c1)C(=O)N2 [Example A88, 2-((E)-2-(6-((E)-(5-methoxy-2-oxoindolin-3-ylidene)methyl)-1H-indazol-3-yl)vinyl)pyridine 1-oxide]
IC50 (human PLK4): < 5 µM
IC50 (Aurora B): < 5 µM

O=C1Nc2ccccc2/C1=C\c1ccc2c(/C=C/c3ccc(C(F)(F)F)cc3)n[nH]c2c1 [Example A65, (E & Z)-3-((3-((E)-4-(trifluoromethyl)styryl)-1H-indazol-6-yl)-methylene)-indolin-2-one]
IC50 (human PLK4): < 5 µM

O=C1Nc2ccccc2C1=Nc1ccc2[nH]ncc2c1 [Example A77, (E and Z)-3-(1H-indazol-5-ylimino)indolin-2-one]
IC50 (human PLK4): 5 to 50 µM

O=CNc1cccc2c1NC(=O)C2=Cc1ccc2cn[nH]c2c1 (mixture of isomers) [Example A50, (E and Z)—N-(3-((1H-indazol-6-yl)methylene)-2-oxoindolin-7-yl)formamide]
IC50 (human PLK4): < 5 µM

CC(C)(C)OC(=O)Nc1ccc2c(c1)/C(=C\c1ccc3c(/C=C/c4ccncc4)n[nH]c3c1)C(=O)N2 [Example A121, tert-butyl(E)-2-oxo-3-((3-((E)-2-(pyridin-4-yl)vinyl)-1H-indazol-6-yl)methylene)indolin-5-ylcarbamate]
IC50 (human PLK4): < 5 µM
IC50 (Aurora B): < 5 µM

O=C1Nc2ccc(F)cc2C1=Nc1ccc2cn[nH]c2c1 [Example A75, (E and Z)-3-(1H-indazol-6-ylimino)-5-fluoroindolin-2-one]
IC50 (human PLK4): 5 to 50 µM

COc1cc2c(cc1OC)/C(=C\c1ccc3cn[nH]c3c1)C(=O)N2 [Example A135, (E)-3-((1H-indazol-6-yl)methylene)-5,6-dimethoxyindolin-2-one]
IC50 (human PLK4): < 5 µM

CN1CCN(c2ccc(-c3n[nH]c4ccc(C=C5C(=O)Nc6ccccc65)cc34)cn2)CC1 (mixture of isomers) [Example A155, (E and Z)-3-((3-(6-(4-methylpiperazin-1-yl)pyridin-3-yl)-1H-indazol-5-yl)methylene)indolin-2-one]
IC50 (human PLK4): < 5 µM

Nc1n[nH]c2ccc(C=C3C(=O)Nc4ccccc43)cc12 (mixture of isomers) [Example A40, (E & Z)-3-((3-amino-1H-indazol-5-yl)methylene)indolin-2-one]
IC50 (human PLK4): 5 to 50 µM

O=C1Nc2ccccc2C1=Cc1ccc2c(-c3cc4ccccc4[nH]3)n[nH]c2c1 (mixture of isomers) [Example A90, (E and Z)-3-((3-(1H-indol-2-yl)-1H-indazol-6-yl)methylene)indolin-2-one]
IC50 (human PLK4): < 5 µM

O=C1Nc2ccccc2/C1=C\c1cc(Cl)c2cn[nH]c2c1 [Example A52, (E)-3-((4-chloro-1H-indazol-6-yl)methylene)indolin-2-one]
IC50 (human PLK4): < 5 µM

O=C1Nc2ncccc2/C1=C\c1ccc2[nH]ncc2c1 [Example A68, (E)-3-((1H-indazol-5-yl)methylene)-1H-pyrrolo[2,3-b]pyridin-2(3H)-one]
IC50 (human PLK4): < 5 µM

Cn1ccnc1/C=C/c1n[nH]c2cc(C=C3C(=O)Nc4ccccc43)ccc12 (mixture of isomers) [Example A105, (E and Z)-3-((3-((E)-2-(1-methyl-1H-imidazol-2-yl)vinyl)-1H-indazol-6-yl)methylene)indolin-2-one]
IC50 (human PLK4): < 5 µM

COC(=O)c1cccc2c1NC(=O)C2=Cc1ccc2cn[nH]c2c1 (mixture of isomers) [Example A46, (E and Z)-methyl 3-((1H-indazol-6-yl)methylene)-2-oxoindoline-7-carboxylate]
IC50 (human PLK4): < 5 µM

O=C1Nc2ccccc2/C1=C/c1cc(Br)c2cn[nH]c2c1 [Example A53b, (Z)-3-((4-bromo-1H-indazol-6-yl)methylene)indolin-2-one]
IC50 (human PLK4): < 5 µM

O=C1Nc2cc(Br)ccc2C1=Nc1ccc2cn[nH]c2c1 [Example A76, (E and Z)-3-(1H-indazol-6-ylimino)-6-bromoindolin-2-one]
IC50 (human PLK4): 5 to 50 µM

O=C1Nc2ccc(C(F)(F)F)cc2C1=Cc1ccc2cn[nH]c2c1 (mixture of isomers) [Example A82, (E and Z)-3-((1H-indazol-6-yl)methylene)-5-(trifluoromethyl)-indolin-2-one]
IC50 (human PLK4): < 5 µM

O=C1Nc2ccc(Cl)nc2/C1=C\c1ccc2cn[nH]c2c1 [Example A134, (E)-3-((1H-indazol-6-yl)methylene)-5-chloro-1H-pyrrolo[3,2-b]pyridin-2(3H)-one]
IC50 (human PLK4): < 5 µM

O=C1Nc2ccccc2/C1=C\c1ccc2c(C3CC3)n[nH]c2c1 [Example A102, (E)-3-((3-cyclopropyl-1H-indazol-6-yl)methylene)indolin-2-one]
IC50 (human PLK4): < 5 µM

O=C1Nc2cc(-c3cccnc3)ccc2C1=Cc1ccc2cn[nH]c2c1 (mixture of isomers) [Example A28, (E and Z)-3-(3-((1H-indazol-6-yl)methylene)-2-oxoindolin-6-yl)pyridinium 2,2,2-trifluoroacetate]
IC50 (human PLK4): 5 to 50 µM

O=C1Nc2ccccc2C1=Cc1ccc2c(-c3ccn[nH]3)n[nH]c2c1 (mixture of isomers) [Example A98, (E and Z)-3-((3-(1H-pyrazol-5-yl)-1H-indazol-6-yl)methylene)-indolin-2-one]
IC50 (human PLK4): < 5 µM

O=C1Nc2ccccc2C1=Nc1ccc2cn[nH]c2c1 [Example A73, (E and Z)-3-(1H-indazol-6-ylimino)indolin-2-one]
IC50 (human PLK4): < 5 µM

O=C1Nc2c(Br)cccc2/C1=C\c1ccc2cn[nH]c2c1 [Example A44, (E)-3-((1H-indazol-6-yl)methylene)-7-bromoindolin-2-one]
IC50 (human PLK4): < 5 µM

O=C1Nc2ccc(F)cc2C1=Nc1ccc2[nH]ncc2c1 [Example A79, (E and Z)-3-(1H-indazol-5-ylimino)-5-fluoroindolin-2-one]
IC50 (human PLK4): 5 to 50 µM

O=C1Nc2cccc(Br)c2/C1=C/c1ccc2cn[nH]c2c1 [Example A133, (Z)-3-((1H-indazol-6-yl)methylene)-4-bromoindolin-2-one]
IC50 (human PLK4): < 5 µM

COc1ccc2c(c1)/C(=C\c1ccc3c(/C=C/c4ccc(CN(C)C)cc4)n[nH]c3c1)C(=O)N2 [Example A136a, (E)-3-((3-(4-((dimethylamino)methyl)styryl)-1H-indazol-6-yl)-methylene)-5-methoxyindolin-2-one 2,2,2-trifluoroacetate]
IC50 (Aurora B): < 5 µM

O=C1Nc2ccccc2/C1=C\c1ccc2c(-c3nccs3)n[nH]c2c1 [Example A92, (E)-3-((3-(thiazol-2-yl)-1H-indazol-6-yl)methylene)indolin-2-one]
IC50 (human PLK4): < 5 µM

O=C1Nc2ccccc2C1=Cc1ccc2c(/C=C/c3ccc(CN4CCOCC4)cc3)n[nH]c2c1 (mixture of isomers) [Example A154, (E and Z)-3-((3-(4-(morpholinomethyl)styryl)-1H-indazol-6-yl)-methylene)indolin-2-one]
IC50 (human PLK4): < 5 µM

O=C1Nc2ccccc2/C1=C\c1ccc2c(I)n[nH]c2c1 [Example A39, (E)-3-((3-iodo-1H-indazol-6-yl)methylene)indolin-2-one]
IC50 (human PLK4): < 5 µM

O=C1Nc2ccccc2C1=Cc1ccc2c(-c3cnc4ccccc4c3)n[nH]c2c1 (mixture of isomers) [Example A95, (E and Z)-3-((3-(quinolin-3-yl)-1H-indazol-6-yl)methylene)indolin-2-one]
IC50 (human PLK4): < 5 µM
